Each compound was assayed against T1, human GnRH receptor (Homo sapiens, UniProt P30968) (assay: IP-One HTRF assay with buserelin (at EC80) stimulation). Settings: CHO cells stably expressing human GnRH receptor, read-out: Potency in IP-One HTRF assay, given as IC50.
T1 sequence (P30968 1-328): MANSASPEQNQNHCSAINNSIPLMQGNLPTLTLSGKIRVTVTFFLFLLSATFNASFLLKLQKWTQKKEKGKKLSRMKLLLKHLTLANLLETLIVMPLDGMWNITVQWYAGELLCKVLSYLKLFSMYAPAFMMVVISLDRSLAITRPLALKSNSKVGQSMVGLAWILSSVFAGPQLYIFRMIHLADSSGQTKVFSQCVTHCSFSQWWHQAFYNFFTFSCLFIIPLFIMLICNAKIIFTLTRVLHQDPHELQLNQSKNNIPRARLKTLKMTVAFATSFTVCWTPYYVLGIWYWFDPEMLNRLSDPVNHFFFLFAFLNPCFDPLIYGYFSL
Format: cell-based
Text: 2.3. IP-One HTRF® Assay By using homogenous time-resolved fluorescence resonance energy transfer (HTRF), the generation of one component of the GnRH—R signalling cascade can be measured. After stimulation of CHO cells stably expressing human GnRH receptor (established by Prof. Thomas Gudermann, currently University of Marburg, Germany; supplied as frozen cell aliquots by Cell Culture Services, Hamburg, Germany) with the EC80 of the GnRH agonist buserelin, Gq protein-coupled receptor signalling cascade is activated resulting in PLC-dependent cleavage of PIP2 to Inositol-1,4,5-triphosphate (IP3) and Diacylglycerol. The second messenger IP3 is degraded intracellularly to myo-inositol. Inhibition of the final degradation step from Inositol-1-phosphate (IP1) to myo-inositol by addition of lithium chloride leads to accumulation of IP1 in the cells. In cell lysates, IP1 can be detected via an antibody-based HTRF detection technology, where IP1 can displace the FRET acceptor IP1-d2 from binding by Terbium-labelled anti-IP1 antibody as donor resulting in a signal decrease. Compounds were tested for their capability of inhibiting GnRH—R activation by buserelin. For all IP-One HTRF® assays reagents of Cisbio Bioassays (IP-One Tb Jumbo kit, #62IPAPEJ; Cisbio Bioassays, Bagnols sur Cèze Cedex, France) were used.
For the assay, frozen cell aliquots were thawed and a cell suspension (3.33×10^6 cells/mL) containing IP1-d2 (dilution 1:40) was prepared and incubated at 37° C. After 1 h 3 μl of the cell suspension were added to 50 nl of a 100-fold concentrated solution of the test compound in DMSO pre-dispensed in a well of a white low-volume 384-well microtiter plate (Greiner Bio-One, Frickenhausen, Germany). […] Plates were incubated for 1 h at 37° C. and 5% carbon dioxide before the cells were lysed by adding 3 μl Terbium-labelled anti-IP1 antibody (1:40) diluted in Conjugate & Lysis buffer as supplied with the kit. After an incubation for 1 h at 22° C. to enable complete cell lysis and antibody binding to free IP1 or IP1-d2, plates were measured in an HTRF reader, e.g. a RUBYstar, PHERAstar (both BMG Labtechnologies, Offenburg, Germany) or a Viewlux (PerkinElmer LAS, Rodgau-Jügesheim, Germany).
From the fluorescence emissions at 665 nm (FRET) and at 620 nm (background signal of Terbium-antibody), the ratio (emission at 665 nm divided by emission at 620 nm) was calculated and the data were normalized (reaction without test compound=0% inhibition; all other assay components except agonist=100% inhibition). On the same microtiter plate, compounds were tested at 10 different concentrations in the range of 20 μM to 1 nM (20 μM, 6.7 μM, 2.2 μM, 0.74 μM, 0.25 μM, 82 nM, 27 nM, 9.2 nM, 3.1 nM and 1 nM; dilution series prepared before the assay at the level of the 100-fold conc. stock solutions by serial 1:3 dilutions in 100% DMSO) in duplicate values for each concentration. By using an in-house software, the IC50 values were calculated by a 4 parameter fit.

`O=C(NCC1CCCCC1)c1ccc2c(c1)C1(CCS(=O)(=O)CC1)C(C1CC1)N2S(=O)(=O)c1ccc(F)cc1` (single isomer, unassigned) [Example 36.1, N-(cyclohexylmethyl)-2-cyclopropyl-1-[(4-fluorophenyl)sulfonyl]-1,2,2′,3′,5′,6′-hexahydrospiro[indole-3,4′-thiopyran]-5-carboxamide 1′,1′-dioxide] and `O=C(NCC1CCCC1)c1ccc2c(c1)C1(CCS(=O)(=O)CC1)C(C1CC1)N2S(=O)(=O)c1ccc(F)cc1` (single isomer, unassigned) [Example 38.1, N-(cyclopentylmethyl)-2-cyclopropyl-1-[(4-fluorophenyl)sulfonyl]-1,2,2′,3′,5′,6′-hexahydrospiro[indole-3,4′-thiopyran]-5-carboxamide 1′,1′-dioxide] are within 1.5-fold of each other in IC50: 107 nM for the first, 88 nM for the second.

First: O=C(NCC1CCCCC1)c1ccc2c(c1)C1(CCS(=O)(=O)CC1)C(C1CC1)N2S(=O)(=O)c1ccc(F)cc1 (single isomer, unassigned) [Example 36.2, N-(cyclohexylmethyl)-2-cyclopropyl-1-[(4-fluorophenyl)sulfonyl]-1,2,2′,3′,5′,6′-hexahydrospiro[indole-3,4′-thiopyran]-5-carboxamide 1′,1′-dioxide]
Second: O=C(NCC1CCCC1)c1ccc2c(c1)C1(CCS(=O)(=O)CC1)C(C1CC1)N2S(=O)(=O)c1ccc(F)cc1 (single isomer, unassigned) [Example 38.2, N-(cyclopentylmethyl)-2-cyclopropyl-1-[(4-fluorophenyl)sulfonyl]-1,2,2′,3′,5′,6′-hexahydrospiro[indole-3,4′-thiopyran]-5-carboxamide 1′,1′-dioxide]
The IC50 of the first is 1.8-fold lower: 3890 nM for the first, 6860 nM for the second. The first is the more potent here.

Compared with `CN(C)S(=O)(=O)c1cccc(NC(=O)c2ccc3c(c2)C2(CCS(=O)(=O)CC2)C(C2CC2)N3S(=O)(=O)c2ccc(F)cc2)c1` (single isomer, unassigned) [Example 37.1, 2-cyclopropyl-N-[3-(N,N-dimethylsulfamoyl)phenyl]-1-[(4-fluorophenyl)sulfonyl]-1,2,2′,3′,5′,6′-hexahydrospiro[indole-3,4′-thiopyran]-5-carboxamide 1′,1′-dioxide], `COc1cccc(S(=O)(=O)N2c3ccc(C(=O)Nc4cccc(S(=O)(=O)N(C)C)c4)cc3C3(CCS(=O)(=O)CC3)C2C2CC2)c1` (single isomer, unassigned) [Example 43.1, 2-cyclopropyl-N-[3-(N,N-dimethylsulfamoyl)phenyl]-1-[(3-methoxyphenyl)sulfonyl]-1,2,2′,3′,5′,6′-hexahydrospiro[indole-3,4′-thiopyran]-5-carboxamide 1′,1′-dioxide] is 6.2-fold lower in IC50: 2130 nM for the first, 344 nM for the second. The second is the more potent here.

`CN(C)S(=O)(=O)c1cccc(NC(=O)c2ccc3c(c2)C2(CCS(=O)(=O)CC2)C(C2CC2)N3S(=O)(=O)c2ccc(F)cc2)c1` (single isomer, unassigned) [Example 37.2, 2-cyclopropyl-N-[3-(N,N-dimethylsulfamoyl)phenyl]-1-[(4-fluorophenyl)sulfonyl]-1,2,2′,3′,5′,6′-hexahydrospiro[indole-3,4′-thiopyran]-5-carboxamide 1′,1′-dioxide] and `COc1cccc(S(=O)(=O)N2c3ccc(C(=O)Nc4cccc(S(=O)(=O)N(C)C)c4)cc3C3(CCS(=O)(=O)CC3)C2C2CC2)c1` (single isomer, unassigned) [Example 43.2, 2-cyclopropyl-N-[3-(N,N-dimethylsulfamoyl)phenyl]-1-[(3-methoxyphenyl)sulfonyl]-1,2,2′,3′,5′,6′-hexahydrospiro[indole-3,4′-thiopyran]-5-carboxamide 1′,1′-dioxide] are within 1.5-fold of each other in IC50: 44 nM for the first, 36 nM for the second.

Compared with `COc1cccc(S(=O)(=O)N2c3ccc(C(=O)NCc4ncccc4C(F)(F)F)cc3C3(CCS(=O)(=O)CC3)C2C2CC2)c1` (single isomer, unassigned) [Example 39.1, 2-cyclopropyl-1-[(3-methoxyphenyl)sulfonyl]-N-{[3-(trifluoromethyl)pyridin-2-yl]methyl}-1,2,2′,3′,5′,6′-hexahydrospiro[indole-3,4′-thiopyran]-5-carboxamide 1′,1′-dioxide], `COc1cccc(S(=O)(=O)N2c3ccc(C(=O)NCc4ncccc4Cl)cc3C3(CCS(=O)(=O)CC3)C2C2CC2)c1` (single isomer, unassigned) [Example 41.1, N-[(3-chloropyridin-2-yl)methyl]-2-cyclopropyl-1-[(3-methoxyphenyl)sulfonyl]-1,2,2′,3′,5′,6′-hexahydrospiro[indole-3,4′-thiopyran]-5-carboxamide 1′,1′-dioxide] is 2.5-fold higher in IC50: 40 nM for the first, 102 nM for the second. The first is the more potent here.

`COc1cccc(S(=O)(=O)N2c3ccc(C(=O)NCc4ncccc4C(F)(F)F)cc3C3(CCS(=O)(=O)CC3)C2C2CC2)c1` (single isomer, unassigned) [Example 39.2, 2-cyclopropyl-1-[(3-methoxyphenyl)sulfonyl]-N-{[3-(trifluoromethyl)pyridin-2-yl]methyl}-1,2,2′,3′,5′,6′-hexahydrospiro[indole-3,4′-thiopyran]-5-carboxamide 1′,1′-dioxide] and `COc1cccc(S(=O)(=O)N2c3ccc(C(=O)NCc4ncccc4Cl)cc3C3(CCS(=O)(=O)CC3)C2C2CC2)c1` (single isomer, unassigned) [Example 41.2, N-[(3-chloropyridin-2-yl)methyl]-2-cyclopropyl-1-[(3-methoxyphenyl)sulfonyl]-1,2,2′,3′,5′,6′-hexahydrospiro[indole-3,4′-thiopyran]-5-carboxamide 1′,1′-dioxide] are within 1.5-fold of each other in IC50: 565 nM for the first, 428 nM for the second.

Going from `COc1cccc(S(=O)(=O)N2c3ccc(C(=O)NCc4ccccc4C(F)(F)F)cc3C3(CCS(=O)(=O)CC3)C2C2CC2)c1` (single isomer, unassigned) [Example 40.1, 2-cyclopropyl-1-[(3-methoxyphenyl)sulfonyl]-N-[2-(trifluoromethyl)benzyl]-1,2,2′,3′,5′,6′-hexahydrospiro[indole-3,4′-thiopyran]-5-carboxamide 1′,1′-dioxide] to `COc1cccc(S(=O)(=O)N2c3ccc(C(=O)Nc4cccc(S(N)(=O)=O)c4)cc3C3(CCS(=O)(=O)CC3)C2C2CC2)c1` (single isomer, unassigned) [Example 42.1, 2-cyclopropyl-1-[(3-methoxyphenyl)sulfonyl]-N-(3-sulfamoylphenyl)-1,2,2′,3′,5′,6′-hexahydrospiro[indole-3,4′-thiopyran]-5-carboxamide 1′,1′-dioxide], the IC50 rises from 19 nM to 437 nM (23-fold).

Going from `COc1cccc(S(=O)(=O)N2c3ccc(C(=O)NCc4ccccc4C(F)(F)F)cc3C3(CCS(=O)(=O)CC3)C2C2CC2)c1` (single isomer, unassigned) [Example 40.2, 2-cyclopropyl-1-[(3-methoxyphenyl)sulfonyl]-N-[2-(trifluoromethyl)benzyl]-1,2,2′,3′,5′,6′-hexahydrospiro[indole-3,4′-thiopyran]-5-carboxamide 1′,1′-dioxide] to `COc1cccc(S(=O)(=O)N2c3ccc(C(=O)Nc4cccc(S(N)(=O)=O)c4)cc3C3(CCS(=O)(=O)CC3)C2C2CC2)c1` (single isomer, unassigned) [Example 42.2, 2-cyclopropyl-1-[(3-methoxyphenyl)sulfonyl]-N-(3-sulfamoylphenyl)-1,2,2′,3′,5′,6′-hexahydrospiro[indole-3,4′-thiopyran]-5-carboxamide 1′,1′-dioxide], the IC50 falls from 632 nM to 99 nM (6.4-fold). The second is the more potent here.

— patent US20140357655A1, “SPIROINDOLINE DERIVATIVES AS GONADOTROPIN- RELEASING HORMONE RECEPTOR ANTAGONISTS” (Bayer Intellectual Property GmbH, priority 2012, published 2014)
